Converted amounts (≈) assume the structure as drawn.

In the experiment the test system is human rhinovirus serotypes, panel B. Kind of experiment: MIC50/MIC80 over panel B of 10 human rhinovirus serotypes (HeLa cell CPE). It is filed as cell-based. Conditions: for MIC50: Human rhinovirus sp., 72 h; for MIC80: panel B, minimum concentration required to inhibit 80% of the tested serotypes. On the procedure: They are useful in inhibiting virus replication in vitro and are primarily active against picornaviruses, including enteroviruses, echovirus and coxsackie virus, especially rhinoviruses. […] The test procedure used was as follows: The MIC values were determined by an automated tissue culture infectious dose 50% (TCID-50) assay. HeLa cells in monoloyers in 96-well cluster plates were infected with a dilution of virus which had been shown empirically to produce 80% to 100% cytopathic effect (CPE) in 3 days in the absence of drug. The compound to be tested was serially diluted through 10, 2-fold cycles and added to the infected cells. After a 3 day incubation at 33° C. and 2.5% carbon dioxide, the cells were fixed with a 5% solution of glutaraldehyde followed by staining with a 0.25% solution of crystal violet in water. The plates were then rinsed, dried, and the amount of stain remaining in the well (a measure of intact cells) was quantitated with an optical density reader. The MIC was determined to be the concentration of compound which protected 50% of the cells from virus-induced CPE relative to an untreated virus control.
In the above test procedures, representative compounds of formula I were tested against some the serotypes from either a panel of fifteen human rhinovirus (HRV) serotypes, (noted in the table as panel T) namely, HRV-2, -14, -1A, -1B, -6, -21, -22, -15, -25, -30, -50, -67, -89, -86 and -41 or against some of the serotypes from a panel of 10 human rhinovirus serotypes namely HRV-3, -4, -5, -9, -16, -18, -38, -66, -75 and -61, (noted in the table as panel B) and the MIC value, expressed in micrograms per milliliter ([…]), for each rhinovirus serotype was determined for each virus, example 1e is given as an example of the data. Then MIC50 and MIC80 values, which are the minimum concentrations of the compound required to inhibit 50% and 80%, respectively, of the tested serotypes were determined.
The following Table gives the test results for representative compounds of the invention. The panel of viruses used in the test appears before the MIC80 and MIC50 figure and the number of serotypes which the compound is tested against (N) is indicated after the MIC80 and MIC50 figure.

As for `Cc1cc(CCCOc2c(F)cc(-c3noc(C(F)(F)F)n3)cc2I)on1` [Example 60e, 5-{3-[2-Fluoro-6-iodo-4-(5-trifluoromethyl-1,2,4-oxadiazol-3-yl)phenoxy]propyl}-3-methylisoxazole], the MIC50 is 99 µg/mL (≈ 199 µM) and the MIC80 was 0.4145 µg/mL (≈ 0.834 µM).

`Cc1cc(CCCOc2c(C)cc(-c3noc(C(F)(F)F)n3)cc2Cl)on1` [Example 63d, 5-{3-[4-(5-Trifluoromethyl-1,2,4-oxadiazol-3-yl)2-chloro-6-methylphenoxy]propyl}-3-methylisoxazole] returned an MIC50 of 0.304 µg/mL (≈ 0.757 µM) and an MIC80 of 0.13 µg/mL (≈ 0.324 µM).

The values above are taken from patent publication US5464848A, “1,2,4-oxadiazolyl-phenoxyalkylisoxazoles and their use as antiviral agents” (Sterling Winthrop Inc., priority 1993, dated 1995).
